Test: Storage stability of IPBC in Dowanol TPM solution with cobalt dryer and azole stabilizer (HPLC)
Format: physicochemical
Conditions: 10% by weight IPBC, 5% Octasoligen-Cobalt 8, 5% stabilizer; for Amount of IPBC (start): HPLC at the beginning; for Amount of IPBC (2 weeks, 40° C.): stored at 40° C., HPLC after two weeks
Description: A solution was prepared in Dowanol TPM (tripropylene glycol methyl ether), containing 10% by weight of iodopropargyl butylcarbamate, 5% by weight of Octasoligen-Cobalt 8 (Borchers, Langenfeld, Germany) and 5% by weight of the azole compounds of the formula (I) specified as a stabilizer in Table 1. The mixture was stored at 40° C. The amount of IPBC was determined by means of HPLC at the beginning and after two weeks.

Row | Structure (SMILES) | Amount of IPBC (start) | Amount of IPBC (2 weeks, 40° C.)
1 | Sc1nnc[nH]1 [Example 1] | 10.2% | 9.0%
2 | Oc1nnc(S)[nH]1 [Example 2] | 9.9% | 8.9%
3 | Nc1nnc[nH]1 [Example 3] | 9.7% | 9.5%
4 | Nc1nnc(N)[nH]1 [Example 4] | 9.7% | 9.7%
